Experimental data as given in PubChem BioAssay (NCI).
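The compound was tested at five concentrations on cells cultured in 96-well plates, with a 48-hour exposure period. GI50 is the concentration that inhibits growth by half. The concentration for full growth arrest is given as TGI.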

Columns and labels:
Test in all cases: NCI-60 cell line screen, 48 h
786-0 renal = tested on: 786-0 renal
A498 renal = tested on: A498 renal
A549 NSCLC = tested on: A549 NSCLC
ACHN renal = tested on: ACHN renal
BT-549 breast = tested on: BT-549 breast
CAKI-1 renal = tested on: CAKI-1 renal
CCRF-CEM leukemia = tested on: CCRF-CEM leukemia
COLO 205 colon = tested on: COLO 205 colon
DU-145 prostate = tested on: DU-145 prostate
EKVX NSCLC = tested on: EKVX NSCLC
HCC-2998 colon = tested on: HCC-2998 colon
HCT-116 colon = tested on: HCT-116 colon
HCT-15 colon = tested on: HCT-15 colon
HL-60(TB) leukemia = tested on: HL-60(TB) leukemia
HOP-62 NSCLC = tested on: HOP-62 NSCLC
HOP-92 NSCLC = tested on: HOP-92 NSCLC
HT29 colon = tested on: HT29 colon
IGROV1 ovarian = tested on: IGROV1 ovarian
K-562 leukemia = tested on: K-562 leukemia
KM12 colon = tested on: KM12 colon
LOX IMVI melanoma = tested on: LOX IMVI melanoma
M14 melanoma = tested on: M14 melanoma
MALME-3M melanoma = tested on: MALME-3M melanoma
MCF7 breast = tested on: MCF7 breast
MDA-MB-231 breast = tested on: MDA-MB-231 breast
MDA-MB-435 = tested on: MDA-MB-435
MOLT-4 leukemia = tested on: MOLT-4 leukemia
NCI-H226 lung = tested on: NCI-H226 lung

Structure (SMILES): Cn1ccc(=O)c2c(O)c3ccccc3c(O)c21
- GI50 (786-0 renal): > 100 µM
- TGI (786-0 renal): > 100 µM
- GI50 (A498 renal): 20.2 µM
- TGI (A498 renal): > 100 µM
- GI50 (A549 NSCLC): > 93.1 µM
- TGI (A549 NSCLC): > 100 µM
- GI50 (ACHN renal): 35.3 µM
- TGI (ACHN renal): > 100 µM
- GI50 (BT-549 breast): > 100 µM
- TGI (BT-549 breast): > 100 µM
- GI50 (CAKI-1 renal): 57 µM
- TGI (CAKI-1 renal): > 100 µM
- TGI (CCRF-CEM leukemia): > 100 µM
- GI50 (COLO 205 colon): 56.9 µM
- TGI (COLO 205 colon): > 100 µM
- GI50 (DU-145 prostate): > 100 µM
- TGI (DU-145 prostate): > 100 µM
- GI50 (EKVX NSCLC): > 100 µM
- TGI (EKVX NSCLC): > 100 µM
- GI50 (HCC-2998 colon): 20.3 µM
- TGI (HCC-2998 colon): > 100 µM
- GI50 (HCT-116 colon): 42.2 µM
- TGI (HCT-116 colon): > 100 µM
- GI50 (HCT-15 colon): > 66.1 µM
- TGI (HCT-15 colon): > 100 µM
- GI50 (HL-60(TB) leukemia): > 100 µM
- TGI (HL-60(TB) leukemia): > 100 µM
- GI50 (HOP-62 NSCLC): 64.5 µM
- TGI (HOP-62 NSCLC): > 100 µM
- GI50 (HOP-92 NSCLC): > 100 µM
- TGI (HOP-92 NSCLC): > 100 µM
- GI50 (HT29 colon): 99.9 µM
- TGI (HT29 colon): > 100 µM
- GI50 (IGROV1 ovarian): > 100 µM
- TGI (IGROV1 ovarian): > 100 µM
- GI50 (K-562 leukemia): > 100 µM
- TGI (K-562 leukemia): > 100 µM
- GI50 (KM12 colon): > 70.1 µM
- TGI (KM12 colon): > 100 µM
- GI50 (LOX IMVI melanoma): 52.7 µM
- TGI (LOX IMVI melanoma): > 100 µM
- GI50 (M14 melanoma): 97.5 µM
- TGI (M14 melanoma): > 100 µM
- GI50 (MALME-3M melanoma): > 100 µM
- TGI (MALME-3M melanoma): > 100 µM
- GI50 (MCF7 breast): > 100 µM
- TGI (MCF7 breast): > 100 µM
- GI50 (MDA-MB-231 breast): 99.1 µM
- TGI (MDA-MB-231 breast): > 100 µM
- GI50 (MDA-MB-435): > 100 µM
- TGI (MDA-MB-435): > 100 µM
- GI50 (MOLT-4 leukemia): 80.9 µM
- TGI (MOLT-4 leukemia): > 100 µM
- GI50 (NCI-H226 lung): > 44.6 µM
- TGI (NCI-H226 lung): > 100 µM
